Experimental data: patent publication US20140357487A1, “PLANTS HAVING INCREASED TOLERANCE TO HERBICIDES” (BASF SE, priority 2011, published 2014)

Legend:
[1] = target: T1, Arabidopsis HPPD variant M335H, P336A (Arabidopsis thaliana, UniProt P93836, M335H/P336A); experiment: HPPD activity assay, Arabidopsis HPPD mutant M335H, P336A; assay type: biochemical; conditions: normalized on Arabidopsis wild-type HPPD
T1 construct: PCR-based site directed mutagenesis of pEXP5-NT/TOPO®-AtHPPD is done; His6 (N); made in house; host or cells: E. coli BL21 (DE3)
T1 sequence (P93836 whole entry M335H/P336A): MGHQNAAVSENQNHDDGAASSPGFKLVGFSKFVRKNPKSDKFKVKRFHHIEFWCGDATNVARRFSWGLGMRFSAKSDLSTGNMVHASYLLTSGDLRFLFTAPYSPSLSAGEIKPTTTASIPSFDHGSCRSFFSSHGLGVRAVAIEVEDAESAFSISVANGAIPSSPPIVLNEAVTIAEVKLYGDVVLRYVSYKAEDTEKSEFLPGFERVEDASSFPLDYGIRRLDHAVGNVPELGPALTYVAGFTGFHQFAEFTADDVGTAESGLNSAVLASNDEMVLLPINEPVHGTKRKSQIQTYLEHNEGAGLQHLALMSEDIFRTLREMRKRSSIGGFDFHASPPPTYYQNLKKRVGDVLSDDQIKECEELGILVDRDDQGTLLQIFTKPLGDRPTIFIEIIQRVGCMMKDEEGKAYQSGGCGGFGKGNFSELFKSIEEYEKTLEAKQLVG
Description: HPPD produces homogentisic acid and CO2 from 4-hydroxyphenylpyruvate (4-HPP) and O2. The activity assay for HPPD is based on the analysis of homogentisic acid by reversed phase HPLC.
The assay mixture can contain 150 mM potassium phosphate buffer pH 7.0, 50 mM L-ascorbic acid, 1 μM FeSO4 and 7 μg of purified enzyme in a total volume of 1 ml.
Inhibitors are dissolved in DMSO (dimethylsulfoxide) to a concentration of 20 mM or 0.5 mM, respectively. From this stock solution serial five-fold dilutions are prepared in DMSO, which are used in the assay. The respective inhibitor solution accounts for 1% of the assay volume. […] After a preincubation of 30 min the reaction is started by adding 4-HPP to a final concentration of 0.1 mM. The reaction is allowed to proceed for 120 min at room temperature. The reaction is stopped by addition of 100 μl of 4.5 M phosphoric acid.
Activities are normalized by setting the uninhibited enzyme activity to 100%. IC50 values are calculated using non-linear regression.
The assay mixture can contain 150 mM potassium phosphate buffer pH 7.0, 50 mM L-ascorbic acid, 100 μM Catalase (Sigma-Aldrich), 1 μM FeSO4 and 0.2 units of purified HPPD enzyme in a total volume of 505 μl. 1 unit is defined as the amount of enzyme that is required to produce 1 nmol of HGA per minute at 20° C.
Inhibitors are dissolved in DMSO (dimethylsulfoxide) to a concentration of 0.5 mM. […] IC50 values are calculated using non-linear regression. […]
Purified, mutant HPPD enzymes are obtained by the methods described above. […] Apparent michaelis constants (Km) and maximal reaction velocities (Vmax) are calculated by non-linear regression with the software GraphPad Prism 5 (GraphPad Software, La Jolla, USA) using a substrate inhibition model.
Field performance of the optimized HPPD enzyme, which is used as a herbicide tolerance trait may depend not only on its lack of sensitivity towards HPPD inhibiting herbicides but also on its activity. To assess the potential performance of a herbicide tolerance trait a tolerance index (TI) is calculated using the following formula: […]

[2] = test system: transgenic soybean plants, Arabidopsis I393L L385V, event SDS-9908; experiment: Greenhouse testing of transgenic soybean plants, Arabidopsis I393L L385V; assay type: in vivo, Glycine max; conditions: soybean SDS-9908, 5 days after herbicide treatment, average of 8 T1
Excerpt: (§1) Various methods for the production of stably transformed plants are well known in the art. Coumarone-derivative herbicide tolerant soybean (Glycine max) or corn (Zea mays) plants can be produced by a method described by Olhoft et al. (US patent 2009/0049567). Briefly, HPPD or HST encoding polynucleotides are cloned into a binary vector using standard cloning techniques as described by Sambrook et al. (Molecular cloning (2001) Cold Spring Harbor Laboratory Press). The final vector construct contains an HPPD or HST encoding sequence flanked by a promoter sequence (e.g. the ubiquitin promoter (PcUbi) sequence) and a terminator sequence (e.g. the nopaline synthase terminator (NOS) sequence) and a resistance marker gene cassette (e.g. AHAS) (FIG. 2). Optionally, the HPPD or HST gene can provide the means of selection. Agrobacterium-mediated transformation is used to introduce the DNA into soybean's axillary meristem cells at the primary node of seedling explants. After inoculation and co-cultivation with Agrobacteria, the explants are transferred to shoot induction medium without selection for one week. The explants are subsequently transferred to shoot induction medium with 1-3 μM imazapyr (Arsenal) for 3 weeks to select for transformed cells. Explants with healthy callus/shoot pads at the primary node are then transferred to shoot elongation medium containing 1-3 μM imazapyr until a shoot elongates or the explant dies. After regeneration, transformants are transplanted to soil in small pots, placed in growth chambers (16 hr day/8 hr night; 25° C. day/23° C. night; 65% relative humidity; 130-150 mE m−2 s−1) and subsequently tested for the presence of the T-DNA via Taqman analysis. After a few weeks, healthy, transgenic positive, single copy events are transplanted to larger pots and allowed to grow in the growth chamber. Transformation of corn plants is done by a method described by McElver and Singh (WO 2008/124495). Plant transformation vector constructs containing HPPD or HST sequences are introduced into maize immature embryos via Agrobacterium-mediated transformation. Transformed cells are selected in selection media supplemented with 0.5-1.5 μM imazethapyr for 3-4 weeks. Transgenic plantlets are regenerated on plant regeneration media and rooted afterwards. Transgenic plantlets are subjected to TaqMan analysis for the presence of the transgene before being transplanted to potting mixture and grown to maturity in greenhouse. Arabidopsis thaliana is transformed with HPPD or HST sequences by floral dip method as described by McElver and Singh (WO 2008/124495). Transgenic Arabidopsis plants are subjected to Tag Man analysis for analysis of the number of integration loci. Transformation of Oryza sativa (rice) are done by protoplast transformation as described by Peng et al. (U.S. Pat. No. 6,653,529)
(§2) Transgenic plants expressing heterologous HPPD or HST enzymes are tested for tolerance against coumarone-derivative herbicides in greenhouse experiments.
(§3) For post emergence treatment, the test plants are first grown to a height of 3 to 15 cm, depending on the plant habit, and only then treated with the herbicides. For this purpose, the test plants are either sown directly and grown in the same containers, or they are first grown separately and transplanted into the test containers a few days prior to treatment.
(§4) Depending on the species, the plants are kept at 10-25° C. or 20-35° C. The test period extends over 3 weeks. During this time, the plants are tended and their response to the individual treatments is evaluated. […] Tolerance to coumarone-derivative herbicides can also be assessed in Arabidopsis. In this case transgenic Arabidopsis thaliana plants are assayed for improved tolerance to coumarone-derivative herbicides in 48-well plates. Seeds are surface sterilized by stirring for 5 min in ethanol+water (70+30 by volume), rinsing one time with ethanol+water (70+30 by volume) and two times with a sterile, deionized water. […]

[3] = test system: transgenic soybean plants, Arabidopsis Q293S, event SDS-10204; experiment: Greenhouse testing of transgenic soybean plants, Arabidopsis Q293S; assay type: in vivo, Glycine max; conditions: soybean SDS-10204, 5 days after herbicide treatment, average of 8 T1
Excerpt: as §1, §2, §3, §4

SMILES | Normalized tolerance index TI [1] | Injury evaluation, scale of 1-100, bleaching phenotype ([2]; 2.5 g/ha) | Injury evaluation, scale of 1-100, bleaching phenotype ([2]; 10 g/ha) | Injury evaluation, scale of 1-100, bleaching phenotype ([2]; 40 g/ha) | Injury evaluation, scale of 1-100, bleaching phenotype ([3]; 2.5 g/ha) | Injury evaluation, scale of 1-100, bleaching phenotype ([3]; 10 g/ha) | Injury evaluation, scale of 1-100, bleaching phenotype ([3]; 40 g/ha) | Injury evaluation, scale of 1-100, bleaching phenotype ([2]; 6.25 g/ha) | Injury evaluation, scale of 1-100, bleaching phenotype ([2]; 25 g/ha) | Injury evaluation, scale of 1-100, bleaching phenotype ([2]; 100 g/ha) | Injury evaluation, scale of 1-100, bleaching phenotype ([3]; 6.25 g/ha) | Injury evaluation, scale of 1-100, bleaching phenotype ([3]; 25 g/ha) | Injury evaluation, scale of 1-100, bleaching phenotype ([3]; 100 g/ha)
CC1=NOC(c2c(Cl)ccc(C3=C(O)c4ncccc4C(C)(C)S3(=O)=O)c2Cl)C1 (centres unmarked) [Inhibitor 1, 7-[2,4-dichloro-3-(3-methyl-4,5-dihydroisoxazol-5-yl)phenyl]-5,5-dimethyl-6,6-dioxo-thiopyrano[4,3-b]pyridin-8-ol] | 1.9 |  |  |  |  |  |  |  |  |  |  |  | 
CC1(C)c2cccnc2C(O)=C(c2ccc(Cl)nc2Cl)S1(=O)=O [Inhibitor 2, 7-(2,6-dichloro-3-pyridyl)-5,5-dimethyl-6,6-dioxo-thiopyrano[4,3-b]pyridin-8-ol] | 2.8 | 3 | 3 | 5 | 1 | 4 | 21 |  |  |  |  |  | 
Cc1c(C(=O)c2cnn(C)c2O)ccc(S(C)(=O)=O)c1C1=NOCC1 [Topramezone, reference compound] |  |  |  |  |  |  |  | 2 | 7 | 14 | 10 | 17 | 21
